Earlier results, collected in patent publication US20240374689A1 (Longevity Biotech, Inc., priority 2010, published 2024).

Conditions: in humans

plasma half-life: 2 min
Substance: GLP-1
